How the values were obtained:
Assay type in all cases: functional, cell-based
[1] = molecular target: ATP-dependent translocase ABCB1 (Homo sapiens, UniProt P08183); assay: TP_TRANSPORTER: increase in DNR intracellular accumulation (DNR: 0.5 uM, Genistein: 200 uM) in H69/LX4 cells; conditions: h69/lx4, 200 µM
[2] = molecular target: T1, Multidrug resistance-associated protein 1 (Homo sapiens, UniProt P33527); assay: TP_TRANSPORTER: increase in DNR intracellular accumulation (DNR: 0.5 uM, Genistein: 200 uM) in MOR-R cells
T1 sequence (P33527 whole entry): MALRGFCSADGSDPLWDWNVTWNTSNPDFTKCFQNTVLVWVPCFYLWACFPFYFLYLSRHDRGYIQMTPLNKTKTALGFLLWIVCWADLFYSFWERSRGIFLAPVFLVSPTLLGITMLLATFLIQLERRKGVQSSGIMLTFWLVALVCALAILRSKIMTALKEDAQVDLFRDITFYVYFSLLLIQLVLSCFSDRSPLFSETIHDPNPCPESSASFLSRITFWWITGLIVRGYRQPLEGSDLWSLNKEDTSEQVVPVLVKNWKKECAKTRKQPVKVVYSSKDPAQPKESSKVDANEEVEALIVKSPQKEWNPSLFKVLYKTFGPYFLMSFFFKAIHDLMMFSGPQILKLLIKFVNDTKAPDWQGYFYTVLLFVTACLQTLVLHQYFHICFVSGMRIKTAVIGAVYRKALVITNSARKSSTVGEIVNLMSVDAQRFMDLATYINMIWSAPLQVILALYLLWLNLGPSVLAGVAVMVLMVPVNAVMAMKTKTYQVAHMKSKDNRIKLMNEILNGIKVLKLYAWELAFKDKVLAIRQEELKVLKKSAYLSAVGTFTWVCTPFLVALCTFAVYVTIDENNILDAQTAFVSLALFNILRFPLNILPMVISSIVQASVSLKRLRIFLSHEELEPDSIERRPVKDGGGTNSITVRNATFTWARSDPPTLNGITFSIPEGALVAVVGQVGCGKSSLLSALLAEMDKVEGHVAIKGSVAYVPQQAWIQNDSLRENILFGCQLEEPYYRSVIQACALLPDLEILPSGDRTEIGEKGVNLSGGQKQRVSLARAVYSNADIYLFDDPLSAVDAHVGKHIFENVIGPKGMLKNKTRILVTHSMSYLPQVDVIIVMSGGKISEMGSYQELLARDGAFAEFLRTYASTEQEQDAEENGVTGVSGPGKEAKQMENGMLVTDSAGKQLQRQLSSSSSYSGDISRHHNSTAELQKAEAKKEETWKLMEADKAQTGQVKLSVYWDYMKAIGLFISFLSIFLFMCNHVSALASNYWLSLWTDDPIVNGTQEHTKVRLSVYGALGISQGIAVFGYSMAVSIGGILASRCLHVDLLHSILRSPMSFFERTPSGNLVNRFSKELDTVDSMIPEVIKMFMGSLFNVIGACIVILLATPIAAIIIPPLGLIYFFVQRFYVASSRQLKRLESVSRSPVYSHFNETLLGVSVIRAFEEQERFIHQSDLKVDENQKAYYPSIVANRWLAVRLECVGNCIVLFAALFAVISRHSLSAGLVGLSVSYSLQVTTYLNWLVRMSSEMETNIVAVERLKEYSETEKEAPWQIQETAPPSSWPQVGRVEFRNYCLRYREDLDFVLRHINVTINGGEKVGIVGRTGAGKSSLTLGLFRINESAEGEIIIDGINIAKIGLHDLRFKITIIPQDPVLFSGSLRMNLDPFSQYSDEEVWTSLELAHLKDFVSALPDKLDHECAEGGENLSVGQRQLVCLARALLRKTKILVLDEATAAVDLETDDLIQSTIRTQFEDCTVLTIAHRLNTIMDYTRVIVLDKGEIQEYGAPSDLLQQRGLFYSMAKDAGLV

[3] = molecular target: T1, Multidrug resistance-associated protein 1; assay: TP_TRANSPORTER: increase in DNR intracellular accumulation (DNR: 0.5 uM, Genistein: 200 uM) in COR-L23/R cells

Chain of ATP-dependent translocase ABCB1 (P08183 whole entry): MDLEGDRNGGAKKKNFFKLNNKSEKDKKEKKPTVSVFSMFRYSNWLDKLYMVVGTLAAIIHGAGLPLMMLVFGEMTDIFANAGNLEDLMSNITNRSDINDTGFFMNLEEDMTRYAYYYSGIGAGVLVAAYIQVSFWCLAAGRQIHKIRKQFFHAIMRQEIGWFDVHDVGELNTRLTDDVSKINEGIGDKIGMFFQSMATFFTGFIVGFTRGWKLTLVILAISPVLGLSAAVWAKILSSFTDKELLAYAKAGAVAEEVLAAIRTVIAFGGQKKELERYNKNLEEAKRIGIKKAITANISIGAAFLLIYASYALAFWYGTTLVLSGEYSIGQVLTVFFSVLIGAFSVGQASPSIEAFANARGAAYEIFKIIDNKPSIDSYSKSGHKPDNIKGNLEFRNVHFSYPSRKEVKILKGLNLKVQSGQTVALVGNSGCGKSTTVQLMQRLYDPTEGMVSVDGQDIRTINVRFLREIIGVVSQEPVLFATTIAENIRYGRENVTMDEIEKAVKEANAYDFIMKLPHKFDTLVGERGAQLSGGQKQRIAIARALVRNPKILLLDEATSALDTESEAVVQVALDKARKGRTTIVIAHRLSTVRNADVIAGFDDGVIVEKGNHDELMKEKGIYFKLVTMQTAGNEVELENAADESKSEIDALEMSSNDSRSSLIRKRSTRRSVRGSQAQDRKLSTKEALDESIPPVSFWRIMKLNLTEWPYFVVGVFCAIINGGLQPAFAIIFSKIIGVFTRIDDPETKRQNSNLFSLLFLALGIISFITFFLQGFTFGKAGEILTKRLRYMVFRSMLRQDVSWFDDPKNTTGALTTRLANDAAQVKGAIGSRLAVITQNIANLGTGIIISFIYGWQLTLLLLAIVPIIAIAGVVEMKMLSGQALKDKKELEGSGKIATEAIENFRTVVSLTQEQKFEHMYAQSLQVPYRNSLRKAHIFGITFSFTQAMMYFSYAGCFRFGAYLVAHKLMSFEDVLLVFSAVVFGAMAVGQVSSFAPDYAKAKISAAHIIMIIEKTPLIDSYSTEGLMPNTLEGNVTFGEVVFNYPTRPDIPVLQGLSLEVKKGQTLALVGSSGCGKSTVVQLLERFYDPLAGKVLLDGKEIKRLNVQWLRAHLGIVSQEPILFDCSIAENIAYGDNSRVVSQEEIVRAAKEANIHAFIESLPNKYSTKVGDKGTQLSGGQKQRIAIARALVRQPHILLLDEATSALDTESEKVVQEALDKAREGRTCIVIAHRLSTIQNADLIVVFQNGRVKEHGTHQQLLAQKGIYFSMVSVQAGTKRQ

Activity [1]: inhibitor [+]
Activity [2]: inhibitor [+]
Activity [3]: inhibitor [+]
SMILES: O=c1c(-c2ccc(O)cc2)coc2cc(O)cc(O)c12 [GENISTEIN]
